# Assay results: US20040234463A1, “Antimicrobial solution for both tropical and oral use” (Innovative Healthcare Products, Inc., priority 2002, published 2004)
# Key:
# Test in all cases: Titration of zones of inhibition of growth
# Assay type in all cases: cell-based
# Set-up in all cases: key: NI: No inhibition detected
# [1] = tested on: Staphylococcus aureus
# Experimental: (§1) The present invention was tested against a commercially available denture cleanser and a 3% solution of H2O2 to test its effectiveness to inhibit growth of ten various target microorganisms commonly found in the human mouth. Included among the microorganisms were candida albicans, staphylococcus aureus, streptococcus sanguia, and fusobacterium nucleatum. Three samples of each microorganism were prepared for introduction of one of the various treatments—either, the present invention, a commercially-available denture cleanser, or a 3% solution of H2O2. The table blow partailly summarizes the results in terms of the titration of zones (in millimeters) of inhibition of growth.
# [2] = tested on: Streptococcus sanguia
# Experimental: as §1
# [3] = tested on: Candida albicans
# Experimental: as §1
# [4] = tested on: Fusobacterium nucleatum
# Experimental: as §1
smiles,measurement,setting,value
OO [H2O2],zone of inhibition of growth,[1]; dilution 1/16,NI
same,zone of inhibition of growth,[1]; dilution 1/32,NI
same,zone of inhibition of growth,[1]; dilution 1/64,NI
same,zone of inhibition of growth,[1]; dilution 1/128,NI
same,zone of inhibition of growth,[1]; dilution St.,10.0 millimeters
same,zone of inhibition of growth,[1]; dilution ¼,NI
same,zone of inhibition of growth,[1]; dilution ½,5.0 millimeters
same,zone of inhibition of growth,[1]; dilution ⅛,NI
same,zone of inhibition of growth,[2]; dilution 1/16,NI
same,zone of inhibition of growth,[2]; dilution 1/32,NI
same,zone of inhibition of growth,[2]; dilution 1/64,NI
same,zone of inhibition of growth,[2]; dilution 1/128,NI
same,zone of inhibition of growth,[2]; dilution St.,10.0 millimeters
same,zone of inhibition of growth,[2]; dilution ¼,NI
same,zone of inhibition of growth,[2]; dilution ½,6.5 millimeters
same,zone of inhibition of growth,[2]; dilution ⅛,NI
same,zone of inhibition of growth,[3]; dilution 1/16,NI
same,zone of inhibition of growth,[3]; dilution 1/32,NI
same,zone of inhibition of growth,[3]; dilution 1/64,NI
same,zone of inhibition of growth,[3]; dilution 1/128,NI
same,zone of inhibition of growth,[3]; dilution St.,5.5 millimeters
same,zone of inhibition of growth,[3]; dilution ¼,NI
same,zone of inhibition of growth,[3]; dilution ½,5.0 millimeters
same,zone of inhibition of growth,[3]; dilution ⅛,NI
same,zone of inhibition of growth,[4]; dilution 1/16,NI
same,zone of inhibition of growth,[4]; dilution 1/32,NI
same,zone of inhibition of growth,[4]; dilution 1/64,NI
same,zone of inhibition of growth,[4]; dilution 1/128,NI
same,zone of inhibition of growth,[4]; dilution St.,17.0 millimeters
same,zone of inhibition of growth,[4]; dilution ¼,7.0 millimeters
same,zone of inhibition of growth,[4]; dilution ½,13.0 millimeters
same,zone of inhibition of growth,[4]; dilution ⅛,6.0 millimeters
